Results from PubChem BioAssay (NCI).
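96-well plates; 48 h exposure; 5 concentrations. Endpoints by linear interpolation between flanking doses. Not reached: highest tested concentration assigned. GI50 marks 50% less growth. TGI: total growth inhibition.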

Key:
Test in all cases: NCI tumour cell line growth inhibition, 48 h
K-562 leukemia = tested on: K-562 leukemia
HL-60(TB) leukemia = tested on: HL-60(TB) leukemia
HT29 colon = tested on: HT29 colon
T-47D breast = tested on: T-47D breast
NCI-H226 lung = tested on: NCI-H226 lung
RPMI-8226 leukemia = tested on: RPMI-8226 leukemia
SW-620 colon = tested on: SW-620 colon
SK-MEL-2 melanoma = tested on: SK-MEL-2 melanoma
SF-295 CNS = tested on: SF-295 CNS
HCC-2998 colon = tested on: HCC-2998 colon
SK-OV-3 ovarian = tested on: SK-OV-3 ovarian
EKVX NSCLC = tested on: EKVX NSCLC
MDA-MB-231 breast = tested on: MDA-MB-231 breast
NCI-H23 lung = tested on: NCI-H23 lung
HCT-15 colon = tested on: HCT-15 colon
CAKI-1 renal = tested on: CAKI-1 renal
UACC-62 melanoma = tested on: UACC-62 melanoma
KM12 colon = tested on: KM12 colon
CCRF-CEM leukemia = tested on: CCRF-CEM leukemia
OVCAR-8 ovarian = tested on: OVCAR-8 ovarian
HCT-116 colon = tested on: HCT-116 colon
MDA-MB-435 = tested on: MDA-MB-435
COLO 205 colon = tested on: COLO 205 colon
SK-MEL-5 melanoma = tested on: SK-MEL-5 melanoma
A549 NSCLC = tested on: A549 NSCLC
786-0 renal = tested on: 786-0 renal
SNB-19 CNS = tested on: SNB-19 CNS
UACC-257 melanoma = tested on: UACC-257 melanoma

COc1ccc(C(=O)c2c(N)c(C#N)cn2-c2cccc(OC)c2)cc1
TGI (K-562 leukemia): 8.57 µM | GI50 (HL-60(TB) leukemia): 2.01 µM | TGI (HL-60(TB) leukemia): 4.91 µM | GI50 (HT29 colon): 2.64 µM | TGI (HT29 colon): 20.2 µM | GI50 (T-47D breast): 3.72 µM | TGI (T-47D breast): > 100 µM | GI50 (NCI-H226 lung): 4.5 µM | TGI (NCI-H226 lung): > 100 µM | GI50 (RPMI-8226 leukemia): 2.94 µM | TGI (RPMI-8226 leukemia): 15.7 µM | GI50 (SW-620 colon): 2.85 µM | TGI (SW-620 colon): > 100 µM | GI50 (SK-MEL-2 melanoma): 4.58 µM | TGI (SK-MEL-2 melanoma): > 100 µM | GI50 (SF-295 CNS): 2.9 µM | TGI (SF-295 CNS): > 100 µM | GI50 (HCC-2998 colon): 4.98 µM | TGI (HCC-2998 colon): 97.4 µM | GI50 (SK-OV-3 ovarian): 4.09 µM | TGI (SK-OV-3 ovarian): > 100 µM | GI50 (EKVX NSCLC): 4.68 µM | TGI (EKVX NSCLC): > 100 µM | GI50 (MDA-MB-231 breast): 7.8 µM | TGI (MDA-MB-231 breast): > 100 µM | GI50 (NCI-H23 lung): 5.61 µM | TGI (NCI-H23 lung): > 100 µM | GI50 (HCT-15 colon): 2.49 µM | TGI (HCT-15 colon): > 100 µM | GI50 (CAKI-1 renal): 3.2 µM | TGI (CAKI-1 renal): > 100 µM | GI50 (UACC-62 melanoma): 3.22 µM | TGI (UACC-62 melanoma): > 100 µM | GI50 (KM12 colon): 4.17 µM | TGI (KM12 colon): > 100 µM | GI50 (CCRF-CEM leukemia): 2.68 µM | TGI (CCRF-CEM leukemia): 9.83 µM | GI50 (OVCAR-8 ovarian): 5.3 µM | TGI (OVCAR-8 ovarian): > 100 µM | GI50 (HCT-116 colon): 3.5 µM | TGI (HCT-116 colon): > 100 µM | GI50 (MDA-MB-435): 0.788 µM | TGI (MDA-MB-435): 4.49 µM | GI50 (COLO 205 colon): 3.01 µM | TGI (COLO 205 colon): 23 µM | GI50 (SK-MEL-5 melanoma): 3.19 µM | TGI (SK-MEL-5 melanoma): 23.2 µM | GI50 (A549 NSCLC): 5.84 µM | TGI (A549 NSCLC): > 100 µM | GI50 (786-0 renal): 4.64 µM | TGI (786-0 renal): > 100 µM | GI50 (SNB-19 CNS): 3.92 µM | TGI (SNB-19 CNS): > 100 µM | GI50 (UACC-257 melanoma): 9.48 µM | TGI (UACC-257 melanoma): > 100 µM
